# Reference: publication PMC8566089 (Bioorganic Chemistry, 2021)
# Like-named read-outs stand apart in the source and are kept apart here.
# Key:
# [1] = test system: HCT116 (colon) cancer cell line; assay: MTT antiproliferative assay, HCT116; assay type: cell-based; details: for IC50: Homo sapiens, HCT-116, 72 h, read-out: IC50 ± SE, HCT116; for SI (selectivity index), HCT116: IC50 of RPE1 relative to that of HCT116
# [2] = biological target: T1, COX-2 (Homo sapiens, UniProt P35354); assay: COX-2 inhibitor screening kit; assay type: biochemical
# T1 sequence (P35354 18-604): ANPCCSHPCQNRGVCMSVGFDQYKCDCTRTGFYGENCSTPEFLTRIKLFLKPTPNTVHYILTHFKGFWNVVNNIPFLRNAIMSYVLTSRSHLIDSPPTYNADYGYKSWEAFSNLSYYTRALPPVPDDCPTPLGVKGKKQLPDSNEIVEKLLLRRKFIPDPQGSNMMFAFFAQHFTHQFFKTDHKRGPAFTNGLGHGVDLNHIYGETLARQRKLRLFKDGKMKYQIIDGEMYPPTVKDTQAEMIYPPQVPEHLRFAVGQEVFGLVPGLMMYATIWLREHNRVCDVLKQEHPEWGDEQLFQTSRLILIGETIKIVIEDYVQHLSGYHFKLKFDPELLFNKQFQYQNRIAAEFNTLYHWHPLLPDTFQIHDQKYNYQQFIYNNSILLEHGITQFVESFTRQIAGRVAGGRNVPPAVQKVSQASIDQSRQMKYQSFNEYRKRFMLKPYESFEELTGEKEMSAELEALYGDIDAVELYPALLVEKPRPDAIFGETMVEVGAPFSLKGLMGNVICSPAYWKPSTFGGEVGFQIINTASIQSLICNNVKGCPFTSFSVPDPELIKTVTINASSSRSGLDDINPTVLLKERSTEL
# [3] = biological target: T2, EGFR (Homo sapiens, UniProt P00533); assay: EGFR Western blot in HCT116; assay type: cell-based; details: for EGFR HCT116 % Inhibition: Western blot at MTT-IC50; for EGFR HCT116 RQ (relative quantification): Western blot at MTT-IC50, control RQ 4.0382
# [4] = test system: A431 (squamous skin) cancer cell line; assay: MTT antiproliferative assay, A431; assay type: cell-based; details: for IC50: Homo sapiens, A-431, 72 h, read-out: IC50 ± SE, A431; for SI (selectivity index), A431: IC50 of RPE1 relative to that of A431
# [5] = test system: RPE1 (normal human immortalized retinal pigment epithelial cell line); assay: MTT assay against normal RPE1 cells; assay type: cell-based; details: RPE-1, read-out: IC50 ± SE, RPE1
# [6] = biological target: T3, VEGFR-2 (Homo sapiens, UniProt P35968); assay: VEGFR-2 Western blot in MCF7; assay type: cell-based; details: for VEGFR2 MCF7 % Inhibition: Western blot at MTT-IC50; for VEGFR2 MCF7 RQ (relative quantification): Western blot at MTT-IC50, control RQ 3.725
# [7] = biological target: T2, EGFR; assay: EGFR Western blot in MCF7; assay type: cell-based; details: for EGFR MCF7 % Inhibition: Western blot at MTT-IC50; for EGFR MCF7 RQ (relative quantification): Western blot at MTT-IC50, control RQ 4.226
# [8] = biological target: T4, COX-1 (Ovis aries, UniProt P05979); assay: COX-1 inhibitor screening kit; assay type: biochemical
# T4 sequence (P05979 25-600): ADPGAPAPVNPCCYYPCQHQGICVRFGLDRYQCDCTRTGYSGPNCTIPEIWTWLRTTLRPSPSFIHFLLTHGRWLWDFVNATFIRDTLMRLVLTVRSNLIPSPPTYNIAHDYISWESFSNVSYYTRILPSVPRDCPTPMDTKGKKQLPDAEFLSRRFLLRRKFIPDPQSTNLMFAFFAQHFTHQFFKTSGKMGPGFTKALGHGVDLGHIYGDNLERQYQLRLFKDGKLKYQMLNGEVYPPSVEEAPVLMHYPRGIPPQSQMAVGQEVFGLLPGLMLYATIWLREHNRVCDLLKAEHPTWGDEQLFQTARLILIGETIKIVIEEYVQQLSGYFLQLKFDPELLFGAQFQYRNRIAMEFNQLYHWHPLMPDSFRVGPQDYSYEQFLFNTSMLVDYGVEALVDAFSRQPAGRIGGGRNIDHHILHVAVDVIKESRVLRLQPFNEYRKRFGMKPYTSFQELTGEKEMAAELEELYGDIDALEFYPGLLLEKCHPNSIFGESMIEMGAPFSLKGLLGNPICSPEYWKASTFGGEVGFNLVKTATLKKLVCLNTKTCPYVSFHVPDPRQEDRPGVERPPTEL
# [9] = test system: MCF7 (breast) cancer cell line; assay: MTT antiproliferative assay, MCF7; assay type: cell-based; details: for IC50: Homo sapiens, MCF7, 72 h, read-out: IC50 ± SE, MCF7; for SI (selectivity index), MCF7: IC50 of RPE1 relative to that of MCF7
# [10] = test system: SARS-CoV-2 (hCoV-19/Egypt/NRC-03/2020); details: SARS-CoV-2 / VERO-E6
# [11] = biological target: T3, VEGFR-2; assay: VEGFR-2 Western blot in HCT116; assay type: cell-based; details: for VEGFR2 HCT116 % Inhibition: Western blot at MTT-IC50; for VEGFR2 HCT116 RQ (relative quantification): Western blot at MTT-IC50, control RQ 3.817
# [12] = test system: HCT116 (colon cancer cell line); assay: Annexin V-FITC apoptosis/necrosis study; assay type: cell-based; details: at MTT-IC50 of the agent
# [13] = test system: HCT116 (colon cancer cell line); assay: PI-flow cytometry cell cycle analysis; assay type: cell-based
# T2 sequence (P00533 25-1210): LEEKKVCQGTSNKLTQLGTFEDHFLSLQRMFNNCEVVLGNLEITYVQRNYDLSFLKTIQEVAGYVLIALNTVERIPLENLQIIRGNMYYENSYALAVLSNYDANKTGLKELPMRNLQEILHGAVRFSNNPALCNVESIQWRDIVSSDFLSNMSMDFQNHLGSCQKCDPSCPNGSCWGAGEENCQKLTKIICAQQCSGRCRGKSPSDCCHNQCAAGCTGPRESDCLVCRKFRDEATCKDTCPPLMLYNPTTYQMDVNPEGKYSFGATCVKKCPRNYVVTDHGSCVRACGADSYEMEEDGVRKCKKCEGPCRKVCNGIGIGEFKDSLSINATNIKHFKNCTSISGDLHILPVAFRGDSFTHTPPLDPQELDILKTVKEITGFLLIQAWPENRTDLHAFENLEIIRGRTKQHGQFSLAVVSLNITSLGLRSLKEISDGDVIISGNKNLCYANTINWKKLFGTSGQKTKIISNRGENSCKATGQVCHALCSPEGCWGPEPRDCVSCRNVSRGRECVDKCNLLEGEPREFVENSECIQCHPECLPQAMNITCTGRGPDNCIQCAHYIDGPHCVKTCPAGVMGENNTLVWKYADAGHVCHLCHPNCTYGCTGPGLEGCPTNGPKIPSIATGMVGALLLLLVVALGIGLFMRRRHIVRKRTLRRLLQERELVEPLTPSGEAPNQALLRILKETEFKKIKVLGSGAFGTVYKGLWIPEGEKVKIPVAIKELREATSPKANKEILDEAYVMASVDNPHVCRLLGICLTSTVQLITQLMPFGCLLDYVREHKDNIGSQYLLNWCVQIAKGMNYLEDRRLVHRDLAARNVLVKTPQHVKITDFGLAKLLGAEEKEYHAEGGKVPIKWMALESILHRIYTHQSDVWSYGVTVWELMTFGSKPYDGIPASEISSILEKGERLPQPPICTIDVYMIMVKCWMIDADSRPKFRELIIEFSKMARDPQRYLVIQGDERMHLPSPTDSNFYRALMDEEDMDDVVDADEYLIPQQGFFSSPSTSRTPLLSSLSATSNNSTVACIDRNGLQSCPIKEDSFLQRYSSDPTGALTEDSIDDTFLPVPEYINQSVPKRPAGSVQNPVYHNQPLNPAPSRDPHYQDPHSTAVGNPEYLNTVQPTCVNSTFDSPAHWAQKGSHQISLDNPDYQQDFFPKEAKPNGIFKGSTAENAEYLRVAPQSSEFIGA
# T3 sequence (P35968 20-1356): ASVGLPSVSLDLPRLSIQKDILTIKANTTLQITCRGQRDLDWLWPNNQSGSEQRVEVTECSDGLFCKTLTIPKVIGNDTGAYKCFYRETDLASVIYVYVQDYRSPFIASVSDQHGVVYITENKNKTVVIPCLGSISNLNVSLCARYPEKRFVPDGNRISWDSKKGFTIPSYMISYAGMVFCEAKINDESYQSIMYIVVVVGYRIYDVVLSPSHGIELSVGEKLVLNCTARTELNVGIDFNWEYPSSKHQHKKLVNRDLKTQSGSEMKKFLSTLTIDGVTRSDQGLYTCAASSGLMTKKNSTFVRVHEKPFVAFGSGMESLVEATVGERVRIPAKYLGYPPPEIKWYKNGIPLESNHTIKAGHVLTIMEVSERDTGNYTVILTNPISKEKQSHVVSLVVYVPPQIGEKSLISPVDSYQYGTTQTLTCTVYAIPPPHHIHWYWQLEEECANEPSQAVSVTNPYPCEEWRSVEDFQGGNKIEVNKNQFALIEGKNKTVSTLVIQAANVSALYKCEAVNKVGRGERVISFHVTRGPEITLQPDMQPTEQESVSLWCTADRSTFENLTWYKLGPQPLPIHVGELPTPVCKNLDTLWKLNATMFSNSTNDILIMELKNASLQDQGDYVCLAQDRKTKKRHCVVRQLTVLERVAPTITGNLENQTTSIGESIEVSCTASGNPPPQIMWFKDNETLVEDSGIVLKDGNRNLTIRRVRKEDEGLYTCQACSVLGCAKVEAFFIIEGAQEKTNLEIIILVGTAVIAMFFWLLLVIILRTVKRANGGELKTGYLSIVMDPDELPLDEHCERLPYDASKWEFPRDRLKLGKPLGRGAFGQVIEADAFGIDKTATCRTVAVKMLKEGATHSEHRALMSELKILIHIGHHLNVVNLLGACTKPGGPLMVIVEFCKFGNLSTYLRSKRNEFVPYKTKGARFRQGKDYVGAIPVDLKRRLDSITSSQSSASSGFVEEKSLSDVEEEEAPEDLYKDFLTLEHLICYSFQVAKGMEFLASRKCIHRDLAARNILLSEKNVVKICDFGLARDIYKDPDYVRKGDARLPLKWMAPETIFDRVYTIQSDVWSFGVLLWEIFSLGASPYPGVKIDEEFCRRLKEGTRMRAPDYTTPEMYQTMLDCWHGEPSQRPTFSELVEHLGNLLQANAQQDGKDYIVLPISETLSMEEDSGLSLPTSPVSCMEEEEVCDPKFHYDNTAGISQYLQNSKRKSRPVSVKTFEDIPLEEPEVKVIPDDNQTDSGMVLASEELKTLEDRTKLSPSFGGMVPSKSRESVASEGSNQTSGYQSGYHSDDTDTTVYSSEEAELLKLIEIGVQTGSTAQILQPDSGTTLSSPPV
SMILES,IC50 [1] [µM],"SI (selectivity index), HCT116 [1]",IC50 [2] [µM],SI = IC50(COX-1)/IC50(COX-2) [2],EGFR HCT116 % Inhibition [3] [%],EGFR HCT116 RQ (relative quantification) [3],IC50 [4] [µM],"SI (selectivity index), A431 [4]",IC50 [5] [µM],VEGFR2 MCF7 % Inhibition [6] [%],VEGFR2 MCF7 RQ (relative quantification) [6],EGFR MCF7 % Inhibition [7] [%],EGFR MCF7 RQ (relative quantification) [7],IC50 [8] [µM],IC50 [9] [µM],"SI (selectivity index), MCF7 [9]",SI = CC50/IC50 [10],VEGFR2 HCT116 % Inhibition [11] [%],VEGFR2 HCT116 RQ (relative quantification) [11],further results
"COc1ccc(/C=C2\CN(C(=O)c3cc(Cl)ccc3OC(C)=O)C/C(=C\c3ccc(OC)cc3)C2=O)cc1 [Compound 5m, 2-[3,5-Bis((E)-4-methoxybenzylidene)-4-oxopiperidine-1-carbonyl]-4-chlorophenyl acetate]",5.94 ± 0.46,1.22,0.319,0.452–0.467,68.5,1.273,3.81 ± 0.29,1.9,7.23 ± 0.51,47.2,1.966,62.4,1.59,0.146,5.06 ± 0.45,1.43,138.7,70.4,1.13,SI = IC50(COX-1)/IC50(COX-2) ([2]; listed as 5 m): 0.458
"COc1ccc(/C=C2\CN(C(=O)c3cc(Cl)ccc3OC(C)=O)C/C(=C\c3ccc(OC)c(OC)c3)C2=O)cc1OC [Compound 5n, 2-[3,5-Bis((E)-3,4-dimethoxybenzylidene)-4-oxopiperidine-1-carbonyl]-4-chlorophenyl acetate]",1.49 ± 0.17,5.30,0.361,0.452,60.1,1.610,0.444 ± 0.04,17.7,7.87 ± 0.62,37.2,2.338,56.8,1.825,0.163,4.39 ± 0.4,1.79,88.9,37.4,2.389,
"CC(=O)Oc1ccc(Cl)cc1C(=O)N1C/C(=C\c2cccs2)C(=O)/C(=C/c2cccs2)C1 [Compound 5p, 4-Chloro-2-[(3E,5E)-4-oxo-3,5-bis(thiophen-2-ylmethylene)piperidine-1-carbonyl]phenyl acetate]",6.38 ± 0.44,3.12,0.138,2.065,56.3,1.763,6.25 ± 0.49,3.2,19.9 ± 1.21,40.7,2.209,59.0,1.731,0.285,6.25 ± 0.61,3.18,233.6,39.6,2.304,
"CCN(CC)CCNC(=O)c1c(C)[nH]c(/C=C2\C(=O)Nc3ccc(F)cc32)c1C [Sunitinib, reference compound]",,,,,,,,,,,,,,,,,,,,Apoptosis (%) Early [12]: 2.54%; Apoptosis (%) Late [12]: 21.69%; Apoptosis (%) Total [12]: 31.69%; Necrosis (%) [12]: 7.46%; phase of cell cycle arrest ([13]; PI-flow cytometry): S-phase; DNA content (%) G0-G1 ([13]; at MTT-IC50 of the agent): 46.18%; DNA content (%) G2/M ([13]; at MTT-IC50 of the agent): 7.59%; DNA content (%) Pre-G1 ([13]; at MTT-IC50 of the agent): 31.69%; DNA content (%) S ([13]; at MTT-IC50 of the agent): 46.23%
